Results on one substance are retold here after US20260085315A1, “POLYNUCLEOTIDE COMPOSITIONS AND METHODS FOR TREATMENT OF CANCER” (APTAH BIO, INC., priority 2023, published 2026).

One data set deals with cAMP. Put plainly: ELISA of tumor tissue homogenate. The conditions noted are these: vs negative control; lower total expression. The class given is in vivo, U-87MG xenograft in animals. On the procedure:
For the assessment of biomarkers such as cAMP, AKT, GFAP, and TAU by ELISA, the U-87MG tumor tissues dissected out from the animals were homogenized according to kit instructions. The homogenates were centrifugated, and the supernatant was collected and immunoassayed with the Human AKT Protein ELISA Kit (MyByoSouce), cyclic AMP Complete Enzyme-linked Immunosorbent Assay (ELISA) kit (MyByoSouce), Human Glial Fibrillary Acidic Protein (GFAP) ELISA Kit (Cusabio), and Human TAU Protein (TAU) ELISA Kit (MyByoSouce) for the quantitative determination of cAMP, AKT, GFAP, and TAU proteins, respectively.
As shown in FIG. 37A-D, the graphs present the individual values of protein quantification of tumors from 6 animals. (A) cAMP, (B) […], (C) GFAP, and (D) TAU.

The test system of data set [1] is Human Glioblastoma Cancer (U-87MG) xenograft. Kind of data set: Histopathology of tumor samples with scoring. It counts as in vivo, athymic nude mice. The note with it: individual animals; G3 APT20TTMG, G2 TMZ. On the set-up: key: 1: Few; 2: Moderate; 3: Large. The text has this:
The fixed tissues were processed for routine paraffin embedding followed by sectioning (3-6 micron). The sections were stained with hematoxylin and eosin. The prepared slides were examined under microscope by the study pathologist to record histopathological findings in tumor samples, related to capsule formation, cell type, connective tissue stroma, apoptosis, necrosis, lipid content, nucleus-to-cytoplasmic (N:C) ratio, nuclei mitotic figures, tumor grade, and level of differentiation. Each histopathological finding and tumor volume were assigned a score ranging from 1 to 4 (Table 7). The sum of these scores for each sample was used to infer the tumor aggressiveness.

Data set [2] shares this test system. Put plainly: Human glioblastoma xenograft tumor growth. The conditions noted are these: for tumor reduction in relation to the negative control: APT20TTMG 20 mg/kg i.v. q3d, TMZ 5 mg/kg p.o. daily. It counts as in vivo, athymic nude mice. On the procedure: Subcutaneous inoculation of the tumorigenic Human Glioblastoma Cancer Cell line (U-87MG) results in the formation of solid tumor in athymic nude mice. Under pathogen free conditions, the tumor retains its own characteristics and grows using the growth factors supplied by the host animal. The ability of administered ASMO1 to inhibit the growth of tumor can be a valuable tool to evaluate its efficacy as an anti-tumor agent. Measurement of tumor size at defined intervals of time generates data that can be used to calculate various end point parameters derived from tumor and understand the potency of the test compounds.
Human glioblastoma cancer cells (U-87MG) were cultured and expanded in EMEM (Eagle's Minimum Essential Medium) supplemented with 10% Fetal Bovine Serum (FBS) at 37° C. and 5% CO2. The cells growing at log phase were harvested by trypsinization and centrifuged for 3 minutes at 800 rpm to form a pellet. The pellet was further washed with PBS. Cell suspension stock was prepared to obtain the required cell count. Before cell inoculation, cell viability was determined using trypan blue. 25 μL of cell suspension was stained with 25 μL of trypan blue and viable cells were counted using Neubauer's chamber. Cell number was adjusted by adding serum free media to achieve desired concentration, i.e., 10×10^7/mL.
Cells were diluted such that the concentration of the cells was 10 million cells/100 μL of serum free medium. Overnight thawed Matrigel and cells with medium were mixed 1:1 and a total volume of 200 μL was injected subcutaneously to the donor animals (n=5) at flank region.
Donor animals were monitored for solid tumor growth for at least 3-4 weeks. Tumor size was measured using digital caliper (MITUTOYO, Japan, CP-15Mx) and volume was calculated by using the formula: (L*W2)/2. Once the tumor reached required size ˜500 mm^3, the donor animals were humanely sacrificed, the tumor was harvested and fragmented into ˜30 mg size and implanted subcutaneously to experimental animals (n=50) using the device. All the animals was monitored alternate day for tumor growth/size.
Once the tumor size reached ˜100 mm^3, animals were selected and randomized by stratification method using tumor size into three groups (G1-G3). Treatment for G1-G3 was initiated at this stage. Each group was comprised of 8 animals.
• G1 was served as vehicle control group and treated with normal saline at the dose of 5 mL/kg, daily, intravenously for 3 weeks. • G2 was served as Reference Item treated group and treated with TMZ at the dose of 5 mg/kg, p.o., daily for 3 weeks. • G3 was treated with APT20TTMG at the dose of 20 mg/kg, intravenously, every third day (q3d) for 3 weeks.
Body weight and tumor size were measured weekly twice using digital caliper. At termination, blood was collected through retro-orbital route. Serum/plasma was separated and stored at deep freezer (−20° C.). Post blood collection, animals were humanely sacrificed by CO2 asphyxiation as per latest guidelines issued by CPCSEA. All the vital organ (brain, kidney, liver, lungs, heart) and tumor were dissected out. Vital organs were fixed in 10% NBF and stored. Tumor tissue was dissected out, weighed and portion of tumor tissue was fixed in 10% NBF and another portion is snap frozen and stored at deep freezer (−80° C.).
As shown in FIG. 34A-C, tumor fragments from the U-87MG cell line were implanted in the animals and once the tumor size reached ˜100 mm^3 animals were randomized into 3 experimental groups (G1, G2, and G3). G1: Vehicle, (G2) Reference Item Temozolomide, and (G3) APT20TTMG for a total of 22 days. (A) The tumor volume of the animals was measured twice/a week. (B) Animals were weighed throughout the experiment and the change in weight gain compared to pre-treatment weight was plotted. (C) After the euthanasia of the animals, the tumors were removed and weighed.
Background: Xenograft models place foreign cells or tissue in a host animal.

Another data set has as its system MCF-7 cell line. Kind of data set: Annexin V/propidium iodide apoptosis assay. It counts as cell-based, Human. The note with it: 0.25, 0.5, 1 μM; 24 hours; vs non-treated cells. Here is the method:
The apoptosis-inducing potential of ASMO APT20TTMG was evaluated using the method of double labeling of cells with Annexin V and propidium iodide. Annexin V is a peptide that has a high affinity for phosphatidyl serine, a phospholipid distributed asymmetrically in the inner leaflet of the lipid bilayer of membrane plasma under physiological conditions. During the process of cell death by apoptosis, phospholipids asymmetric distribution is lost and phosphatidyl serine is translocated to the outer leaflet of the plasma membrane through a process of externalization. The measurement of the exposure of phosphatidylserine could be detected by Annexin V conjugated to fluorochromes. On the other hand, propidium iodide is a DNA intercalator that only can penetrate the interior of the cell in cases where the selective permeability of the plasma membrane is compromised, which clearly occurs during several processes of cell death.
Pro-apoptotic potential of APT20TTMG was evaluated in the MCF-7 cell line, using the Apoptosis Detection with Annexin V/Propidium Iodide kit (eBioScience). First, cells were cultured in 24-well plates at a density of 1×10^5 cells/well for 24 hours for adhesion. […] Finally, the samples were labeled with Propidium Iodide and analyzed in a flow cytometer (BD FACSCanto II, BD Biosciences) through the acquisition of 10.000 gated events/sample.

Where “and” joins values, the source holds several entries; their conditions need not be identical. Identical values can stand only once. Entries after “also recorded” stand apart in the source; their conditions may differ. d = 2'-deoxy (DNA); m = 2'-O-methyl

Consider “APT20TTMG: engineered polynucleotide ASMO1, 24 nt, SEQ ID NO: 3 gtccactaacctttcaggccagcg; targeting moieties 5′-GTCCA-3′ and 5′-CG-3′, U1 snRNP recruiting moiety (GTCCACTAACCTTTCAGGCCAGCG; sugars from the 5' end m5 d14 m5, all phosphorothioate, methylation of C and T or U not given here)”, for which, in the data set on cAMP, the “cAMP in tumor tissue (ELISA)” value was “no statistical difference was observed”. For the same substance, in data set [1], the “Score: Mitotic figures” value is 1 (4×) and 3. Also, the “tumor growth (tumor volume) vs vehicle group” value in data set [2] (APT20TTMG 20 mg/kg i.v. every third day 3 weeks, TMZ 5 mg/kg p.o. daily 3 weeks) is recorded as “inhibit tumor growth from day 16”. The final tumor weight entry in data set [2] (between APT20TTMG, TMZ and vehicle groups, after euthanasia) is on record as “no statistical difference”. Further, the “tumor reduction in relation to the negative control” value in data set [2] (day 20) is 46.7±10.7%; in data set [2] (day 22), 42±13.2%. The “Volume (tumor)” value in data set [2] (individual animals, G3 APT20TTMG, G2 TMZ) is “Volume 321.5; also recorded: Volume 768.1; also recorded: Volume 796.8; also recorded: Volume 62.3; also recorded: Volume 1441.5; also recorded: Volume 953.5”. Moreover, the “proportion of viable cells, recent/late apoptosis or necrosis” value in the data set on MCF-7 cell line was “no change in any of the evaluated parameters”.
